Data reported in patent publication US20090099064A1, “Derivatized insulin oligomers” (Diabecore Medical Inc.,, priority 2006, published 2009).
Where two headings read alike, the source gives them in different places.

How the values were obtained:
[1] = phase 3 clinical trials; cited from earlier work
[2] = system: diabetic beagle dogs; experiment: Subcutaneous injection into diabetic dogs, glucose suppression; assay type: in vivo; details: compared with unmodified insulin
Procedure: FIG. 4. Subcutaneous injection of human insulin and P-insulin oligomers into diabetic beagle dogs.
The formulation of example 3 containing P-insulin oligomers of sequence ID NO.2 and with 3:1 M:M protamine/insulin or unmodified insulin were injected subcutaneously into diabetic dogs.

[3] = system: L6 rat myocytes; experiment: 2-deoxyglucose uptake in L6 rat myocyte cell cultures; assay type: cell-based; details: 60 min incubation
Procedure: FIG. 5. Dose response curve of human & porcine & P-insulin oligomers in L6 rat myocytes. Cells were incubated for 60 min. in the various concentrations of each insulin in separate experiments. 2-deoxyglucose uptake was then measured.
P-insulin oligomers of sequence ID NO. 1 were tested in L6 rat myocyte cell cultures for their ability to cause glucose uptake.

[4] = system: pancreatectomized diabetic beagle dogs; experiment: Intravenous injection into pancreatectomized diabetic dogs, blood glucose
[5] = system: pancreatectomized diabetic beagle dogs; details: dog, in vivo, iv
[6] = U.S. Pat. No. 5,453,417 & PCT/CA92/00082; cited from earlier work
[7] = system: Sprague-Dawley rats; experiment: Pulmonary (intratracheal) administration to Sprague-Dawley rats, whole blood glucose; assay type: in vivo
Procedure: FIG. 6. Glucose response of Sprague-Dawley rats to […] of phosphorylated insulin hexamer. Rats were injected at Oh and glucose levels measured for 12 h. As shown, glucose levels dropped by 2 h post-dosing and remained suppressed out to 11 h post-dose, after which they returned to baseline or pre-dose levels.
Via the pulmonary route, six Sprague-Dawley rats (BW 250-360 g.) were administered 4 mg of phosphorylated insulin oligomer (in the form of hexamer). The animals were dosed by intratracheal administration using a PennCentury intratracheal Aerosolizer (Microsprayer). The dose volume was 100 μL/animal. The dose concentration for the study was prepared by dilution of 30 mg/mL phosphorylated insulin hexamer in isotonic phosphate buffered normal saline, pH 7.4.
An Antisedan cocktail consisting of atipamezole hydrochloride (1 mg/mL, 1 mg/kg) and saline was administered by subcutaneous injection at a dose volume of 1 mL/kg, following completion of the dosing process. A series of 13 blood samples (approximately 0.1 mL/sample) were collected from each animal at 1, 2, 3, 4, 5, 6, 7, 8, 9, 10, 11 and 12 hours post-dose. For this purpose, each rat (unanesthetized) was bled by jugular/tail vein venipuncture (or other site as deemed necessary) and the sample used for measuring whole blood glucose levels using the Accu Soft Advantage™ (glucometer) method. […]

[8] = IV injection, pancreatectomized diabetic dogs

## Detemir
[1]
  fasting blood glucose (FBG) achieved: 145 mg %

## Lantus
[1]
  fasting blood glucose (FBG) achieved: 145 mg %

## P-insulin oligomers: phosphorylated insulin oligomers comprising sequence ID NOs. 1 and 2; FIG. 3 and 5 use ID NO. 1, FIG. 4 uses ID NO. 2
[2]
  glucose suppression / duration of action: extended duration of action
[3]; entire dose range
  dose response of 2-deoxyglucose uptake: flattened dose response at all concentrations investigated
[3]; relative to human (and porcine) insulin
  maximal stimulation of deoxy-glucose uptake: markedly lower than that for porcine or human insulin
[4]; [8]
  course of blood glucose after injection: maintenance of normal glucose without hyperglycemia at all doses
[5]
  dose at which hypoglycemia was observed: 8 times the basal or "glucose ma
  serum half-life / duration of action (in words): extended duration of action (long serum half-life)

## human insulin
[4]; IV injection, pancreatectomized diabetic beagle dogs
  serum half-life / duration of action (in words): short serum half-life
[4]; [8]
  course of blood glucose after injection: rapid decline in blood glucose
  hypoglycemia: pronounced hypoglycemia
[4]; given IV, pancreatectomized diabetic dogs
  duration of action: 20 min

## monomeric phosphorylated insulin: monomeric phosphorylated insulin of the Lougheed patents U.S. Pat. No. 5,453,417 & PCT/CA92/00082
[6]
  flattening of insulin's dose response: 3-4 fold

## phosphorylated insulin hexamer: phosphorylated insulin oligomer in the form of hexamer, in isotonic phosphate buffered normal saline, pH 7.4
[7]; 4 mg
  time at which glucose returned to pre-dose levels: ≤ 12 h
[7]; 4 mg (FIG. 6 legend says 40 mg)
  time for which blood glucose remained below baseline post-dosing: 11 h
